Results as given in US20070259866A1, “Method of Adenovirus, HIV and HPV Prophylaxis” (priority 1999, published 2007).

What was measured:
adenovirus = assay: Inhibition of adenovirus infection in A549 cells in vitro; assay type: cell-based
Description: Compound 96 inhibited adenovirus infection 67% in A549 cells in vitro.

varicella-zoster virus = assay: Inhibition of varicella-zoster virus infection in vitro; assay type: cell-based
Description: Compound 96 inhibited varicella-zoster virus infection >98% in vitro.

[1] = tested on: NL-HX-ADA (molecularly cloned macrophage-tropic type of HIV-1); assay: Time course of anti-HIV effect of CTC96 (neutralization vs contact time); assay type: cell-based
Protocol: • Stock virus: NL-HX-ADA ˜5.5 μg/ml p24 (This is a molecularly cloned macrophage-tropic type of HIV-1). Virus was used to infect cells at 1:4,000 final dilution (˜1.4 ng/ml p24). Stock CTC-96: 10 mg/ml prepared directly in RPMI 1640 Method: Concentrated stock solution of virus was treated for 1 hour with equal volume of medium containing the drug at the indicated concentrations (1:2 dilution). The virus/drug mixture was then diluted 1,000-fold (1:2,000 dilution) and then added to an equal volume of PHA-activated humans PBMCs (1:4,000 final dilution) to allow virus replication to occur. The extent of infection was measured after 4 days by a fluorescent focus assay and compared to that of a control culture not containing any drug.
Using similar conditions as described above, virus was incubated with 0.625 mg/ml CTC96 for the indicated time period before 1,000-fold dilution and addition to cells.
Virus was incubated with four different concentrations of CTC96 for the indicated time periods, and then the extent of inactivation tested as previously described. Numbers in parentheses indicate results obtained in the initial analysis for the lowest dose ([…]) of CTC96.

[2] = tested on: human papillomavirus type 11 (HPV-11); assay: HPV-11 pre-treated with CTC 96, subcutaneous human foreskin xenograft infection model in SCID mouse, graft size; assay type: in vivo; conditions: for cGMD of the Grafts, Lower Quartile / cGMD of the Grafts, Median / cGMD of the Grafts, Upper Quartile: 12 weeks; for Composite Geometric Mean Diameters (cGMD) of the Grafts, Means: grafts at 12 weeks, replicates 1, 3, 4
Protocol: The activity of CTC 96 on human papillomavirus type 11 (HPV-11) prior to infection was tested by using a subcutaneous human xenograft infection model in the severe combined immunodeficiency (SCID) mouse.
Three different concentrations, 1%, 0.2% and 0.05%, of CTC 96 and a control (normal saline) were evaluated in HPV-11-infected internal human xenograft in the SCID mouse. The viral suspension was exposed for one hour with one of the four CTC 96 concentrations before being used to infect the human foreskin grafts.
Each experiment was done in quadruplicate. Twelve mice were used in each replicate. For each replicate, the four treatment groups were made of 3 mice (3 animals per cage). Each mouse received under the skin of each flank one HPV-11-infected foreskin fragment. Two foreskin donors were used, one for the fragments implanted under the left flank and a different one for the fragments implanted under the right flank. The HPV-11-infected grafts were left to grow for 12 weeks, while the mice weights were monitored every other week. At the end of the 12 weeks, the animals were sacrificed and the grafts recovered, measured and processed.
CTC 96 was applied to the virus directly, prior to infection. Just prior to exposure of the virus to CTC 96, 750 μl of normal saline was added to a vial containing 15 mg of dry CTC 96. The resulting solution contained 2% of CTC 96.
CTC 96 was incubated for 1 hour at 37° C. with the viral suspension, which was then used to infect the human foreskin fragments.
Neonatal foreskins from routine circumcision were collected at the nursery of a local hospital and placed in transport medium (Minimum Essential Medium, penicillin 25,000 U/ml, streptomycin 25 mg/mL), In a Petri dish, the foreskin's occluded side was removed using a scalpel, leaving the exposed skin prepared as a split-thickness graft. The foreskin was punched out using a 3 mm biopsy punch. One fragment was fixed in buffered formalin to serve as control in the histologic and immunocytochemical analyses. 3-4 fragments were snap frozen in liquid nitrogen, to serve as controls in the RT-PCR assay. The other fragments were split equally into four groups. Each group of fragments was dispensed in one of the vials containing 500 μl of pretreated viral suspension.
Two foreskin donors collected within 24 hours of the procedure, were used in each replicate experiment. Each viral suspension received the foreskin fragments of both foreskin donors. To recognize the foreskin donors, in each experiment we used […]. The fragments were vortexed in the suspension and left to incubate for 60 minutes at 37° C. before being grafted.
For the grafting, the mouse was anesthetized in an anesthesia chamber with 5% halothane to 2 liters of oxygen, until no corneal or pedal reflexes could be elicited. The animal was removed from the chamber, and the halothane adjusted to 2-2.5% to 1 liter of oxygen for continued administration via nose cone for the duration of the surgical procedure. The animals ears were notched for identification. The back skin was prepped with a povidone iodine swab. A 1 cm vertical incision of the skin was made on the flank with scissors. Through that incision, the subcutis was bluntly dissected with closed scissors caudad to the wound. One foreskin fragment from the […] donor was inserted in the caudad pocket, epidermis facing the mouse's skin, mucosal side in contact with the musculo-fascial plane (panniculus camosus) of the mouse. The incision was closed with two metal clips. The other side was grafted in the same manner with one foreskin fragment from the […] donor.
The animals were otherwise sacrificed by cervical dislocation 12 weeks after graft implantation. Length, width, and height of the graft were measured and recorded. The graft were then removed and split in at least two parts. One part was fixed in buffered formalin. […]

[3] = [CTC96] 0.625 μg/ml, contact time 2 minutes
[4] = [CTC96] 0.625 μg/ml, contact time 4 minutes
[5] = [CTC96] 0.625 μg/ml, contact time 8 minutes
[6] = [CTC96] 0.625 μg/ml, contact time 16 minutes
[7] = [CTC96] 0.625 μg/ml, contact time 32 minutes
[8] = [CTC96] 0.625 μg/ml, contact time 64 minutes

## CC1=CC(C)=[N+]2CC[N+]3=C(C)C=C(C)[O][Co-4]23([n+]2cc[nH]c2C)([n+]2cc[nH]c2C)[O]1.[Br-] [Compound 96]
adenovirus
  inhibited adenovirus infection: 67%
varicella-zoster virus
  inhibited varicella-zoster virus infection: > 98%
[1]; [3]
  % Neutralization: 15%
  % Neutralization (in parentheses: initial analysis): 7%
[1]; [4]
  % Neutralization: 25%
  % Neutralization (in parentheses: initial analysis): 43%
[1]; [5]
  % Neutralization: 41%
  % Neutralization (in parentheses: initial analysis): 56%
[1]; [6]
  % Neutralization: 56%
  % Neutralization (in parentheses: initial analysis): 64%
[1]; [7]
  % Neutralization: 65%
  % Neutralization (in parentheses: initial analysis): 76%
[1]; [8]
  % Neutralization: 80%
  % Neutralization (in parentheses: initial analysis): 100%
[1]; [CTC96] 1.25 μg/ml, contact time 2 minutes
  % Neutralization: 4%
[1]; [CTC96] 1.25 μg/ml, contact time 4 minutes
  % Neutralization: 17%
[1]; [CTC96] 1.25 μg/ml, contact time 8 minutes
  % Neutralization: 42%
[1]; [CTC96] 1.25 μg/ml, contact time 16 minutes
  % Neutralization: 61%
[1]; [CTC96] 1.25 μg/ml, contact time 32 minutes
  % Neutralization: 78%
[1]; [CTC96] 1.25 μg/ml, contact time 64 minutes
  % Neutralization: 94%
[1]; [CTC96] 2.5 μg/ml, contact time 2 minutes
  % Neutralization: 21%
[1]; [CTC96] 2.5 μg/ml, contact time 4 minutes
  % Neutralization: 25%
[1]; [CTC96] 2.5 μg/ml, contact time 8 minutes
  % Neutralization: 47%
[1]; [CTC96] 2.5 μg/ml, contact time 16 minutes
  % Neutralization: 72%
[1]; [CTC96] 2.5 μg/ml, contact time 32 minutes
  % Neutralization: 86%
[1]; [CTC96] 2.5 μg/ml, contact time 64 minutes
  % Neutralization: 100%
[1]; [CTC96] 5 μg/ml, contact time 2 minutes
  % Neutralization: 37%
[1]; [CTC96] 5 μg/ml, contact time 4 minutes
  % Neutralization: 52%
[1]; [CTC96] 5 μg/ml, contact time 8 minutes
  % Neutralization: 65%
[1]; [CTC96] 5 μg/ml, contact time 16 minutes
  % Neutralization: 78%
[1]; [CTC96] 5 μg/ml, contact time 32 minutes
  % Neutralization: 98%
[1]; [CTC96] 5 μg/ml, contact time 64 minutes
  % Neutralization: 100%
[2]; 0.05% concentration
  effect on graft size: effective
[2]; CTC 96 0.05%
  cGMD of the Grafts, Lower Quartile: 1.94 mm
  cGMD of the Grafts, Median: 2.01 mm
  cGMD of the Grafts, Upper Quartile: 2.13 mm
[2]; CTC 96 0.2%
  cGMD of the Grafts, Lower Quartile: 1.70 mm
  cGMD of the Grafts, Median: 1.88 mm
  cGMD of the Grafts, Upper Quartile: 2.05 mm
[2]; CTC 96 1%
  cGMD of the Grafts, Lower Quartile: 1.82 mm
  cGMD of the Grafts, Median: 1.94 mm
  cGMD of the Grafts, Upper Quartile: 2.08 mm
[2]; regardless of the concentration used
  HPV-11-induced growth of the grafts: limited the HPV-11-inducted growth of the grafts
[2]; virus exposed 1 hour to CTC 96 0.05%
  Composite Geometric Mean Diameters (cGMD) of the Grafts, Means: 2.02 mm
[2]; virus exposed 1 hour to CTC 96 0.2%
  Composite Geometric Mean Diameters (cGMD) of the Grafts, Means: 1.86 mm
[2]; virus exposed 1 hour to CTC 96 1%
  Composite Geometric Mean Diameters (cGMD) of the Grafts, Means: 1.95 mm
